Results from ChEMBL document CHEMBL5360622, “Leucettinibs, a Class of DYRK/CLK Kinase Inhibitors Inspired by the Marine Sponge Natural Product Leucettamine B” (J Med Chem, 2023).

Experiments:
[1] = molecular target: Casein kinase I isoform epsilon (Homo sapiens, UniProt P49674)
[2] = molecular target: Cyclin-dependent kinase 5/CDK5 activator 1 (Homo sapiens, UniProt Q00535); format: cell-based, Sf9
[3] = molecular target: Dual specificity protein kinase CLK2 (Homo sapiens, UniProt P49760)
[4] = molecular target: Dual specificity protein kinase CLK3 (Homo sapiens, UniProt P49761); format: cell-based, Sf9
[5] = molecular target: Dual specificity protein kinase CLK4 (Homo sapiens, UniProt Q9HAZ1)
[6] = molecular target: T1, Dual specificity tyrosine-phosphorylation-regulated kinase 2 (Homo sapiens, UniProt Q92630)
T1 sequence (Q92630 whole entry): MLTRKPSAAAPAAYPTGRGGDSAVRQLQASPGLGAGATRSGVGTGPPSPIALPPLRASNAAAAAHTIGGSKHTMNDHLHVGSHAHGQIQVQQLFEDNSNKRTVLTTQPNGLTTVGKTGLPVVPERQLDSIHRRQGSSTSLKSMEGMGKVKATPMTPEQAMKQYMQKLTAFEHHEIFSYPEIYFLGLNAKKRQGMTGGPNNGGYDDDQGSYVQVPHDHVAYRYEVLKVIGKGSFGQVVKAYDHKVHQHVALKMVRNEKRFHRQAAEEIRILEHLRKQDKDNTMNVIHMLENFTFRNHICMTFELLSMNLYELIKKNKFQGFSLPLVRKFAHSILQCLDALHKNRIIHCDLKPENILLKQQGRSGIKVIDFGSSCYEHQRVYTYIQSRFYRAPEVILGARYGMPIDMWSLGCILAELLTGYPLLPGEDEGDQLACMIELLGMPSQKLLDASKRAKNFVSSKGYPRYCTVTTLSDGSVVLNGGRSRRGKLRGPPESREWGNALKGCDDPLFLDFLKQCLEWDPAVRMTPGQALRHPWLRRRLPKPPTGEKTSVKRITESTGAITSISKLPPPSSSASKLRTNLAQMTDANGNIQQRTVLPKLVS

[7] = molecular target: T2, Dual specificity tyrosine-phosphorylation-regulated kinase 3 (Homo sapiens, UniProt O43781)
T2 sequence (O43781 whole entry): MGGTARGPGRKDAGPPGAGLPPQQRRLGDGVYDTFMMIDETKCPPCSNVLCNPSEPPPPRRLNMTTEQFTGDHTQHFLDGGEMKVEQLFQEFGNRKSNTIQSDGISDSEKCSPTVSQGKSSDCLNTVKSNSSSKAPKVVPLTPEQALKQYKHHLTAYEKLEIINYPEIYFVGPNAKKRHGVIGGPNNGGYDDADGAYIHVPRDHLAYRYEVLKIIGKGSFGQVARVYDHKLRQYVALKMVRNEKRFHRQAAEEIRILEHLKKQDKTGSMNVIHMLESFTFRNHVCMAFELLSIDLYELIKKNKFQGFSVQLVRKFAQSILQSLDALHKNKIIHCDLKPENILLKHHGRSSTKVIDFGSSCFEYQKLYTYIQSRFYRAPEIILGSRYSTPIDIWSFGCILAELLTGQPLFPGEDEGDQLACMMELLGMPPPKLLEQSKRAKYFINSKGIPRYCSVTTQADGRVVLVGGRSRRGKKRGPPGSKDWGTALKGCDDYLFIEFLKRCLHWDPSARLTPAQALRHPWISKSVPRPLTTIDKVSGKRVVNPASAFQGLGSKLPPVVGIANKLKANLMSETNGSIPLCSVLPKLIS

[8] = molecular target: T3, Dual specificity tyrosine-phosphorylation-regulated kinase 4 (Homo sapiens, UniProt Q9NR20)
T3 sequence (Q9NR20 whole entry): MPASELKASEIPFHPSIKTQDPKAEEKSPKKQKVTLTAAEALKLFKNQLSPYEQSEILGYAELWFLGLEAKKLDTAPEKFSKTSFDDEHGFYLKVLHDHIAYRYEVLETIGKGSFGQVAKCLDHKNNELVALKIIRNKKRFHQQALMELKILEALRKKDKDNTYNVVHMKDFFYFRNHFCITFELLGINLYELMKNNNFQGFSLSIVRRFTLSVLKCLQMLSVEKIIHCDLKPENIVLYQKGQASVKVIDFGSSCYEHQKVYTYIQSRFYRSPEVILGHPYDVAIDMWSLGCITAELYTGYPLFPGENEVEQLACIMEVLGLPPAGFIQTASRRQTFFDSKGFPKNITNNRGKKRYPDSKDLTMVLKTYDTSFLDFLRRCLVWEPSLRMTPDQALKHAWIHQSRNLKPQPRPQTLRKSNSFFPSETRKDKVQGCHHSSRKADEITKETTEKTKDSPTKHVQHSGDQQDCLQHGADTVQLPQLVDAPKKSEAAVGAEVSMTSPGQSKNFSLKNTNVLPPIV

[9] = molecular target: Glycogen synthase kinase-3 beta (Homo sapiens, UniProt P49841); format: cell-based, Sf9
Sequence of Glycogen synthase kinase-3 beta (P49841 whole entry): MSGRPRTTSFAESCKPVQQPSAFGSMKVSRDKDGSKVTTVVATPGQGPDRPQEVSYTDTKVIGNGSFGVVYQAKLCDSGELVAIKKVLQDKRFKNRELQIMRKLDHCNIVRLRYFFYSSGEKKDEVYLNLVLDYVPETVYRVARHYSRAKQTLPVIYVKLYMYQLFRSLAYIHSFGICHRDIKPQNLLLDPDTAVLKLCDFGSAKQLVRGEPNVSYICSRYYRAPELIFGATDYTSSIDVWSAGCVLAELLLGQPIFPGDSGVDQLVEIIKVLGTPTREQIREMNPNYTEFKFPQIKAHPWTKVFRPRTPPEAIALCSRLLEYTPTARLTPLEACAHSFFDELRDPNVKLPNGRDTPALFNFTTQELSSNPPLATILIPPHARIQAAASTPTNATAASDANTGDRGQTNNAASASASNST

Sequence of Dual specificity protein kinase CLK4 (Q9HAZ1 whole entry): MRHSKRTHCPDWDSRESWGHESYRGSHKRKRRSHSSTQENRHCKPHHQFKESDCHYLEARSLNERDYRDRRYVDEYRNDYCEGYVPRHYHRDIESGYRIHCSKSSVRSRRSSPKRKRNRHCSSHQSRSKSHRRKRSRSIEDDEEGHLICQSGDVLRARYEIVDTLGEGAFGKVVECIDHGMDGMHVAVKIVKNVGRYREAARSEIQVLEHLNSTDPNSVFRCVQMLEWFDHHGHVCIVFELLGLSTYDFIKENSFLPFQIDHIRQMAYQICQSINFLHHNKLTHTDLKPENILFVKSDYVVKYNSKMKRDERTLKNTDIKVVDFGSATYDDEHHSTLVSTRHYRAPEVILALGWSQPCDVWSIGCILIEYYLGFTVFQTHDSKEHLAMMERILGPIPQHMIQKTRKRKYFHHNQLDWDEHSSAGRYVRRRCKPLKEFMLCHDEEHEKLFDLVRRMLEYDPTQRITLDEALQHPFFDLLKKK
Sequence of Dual specificity protein kinase CLK3 (P49761 whole entry): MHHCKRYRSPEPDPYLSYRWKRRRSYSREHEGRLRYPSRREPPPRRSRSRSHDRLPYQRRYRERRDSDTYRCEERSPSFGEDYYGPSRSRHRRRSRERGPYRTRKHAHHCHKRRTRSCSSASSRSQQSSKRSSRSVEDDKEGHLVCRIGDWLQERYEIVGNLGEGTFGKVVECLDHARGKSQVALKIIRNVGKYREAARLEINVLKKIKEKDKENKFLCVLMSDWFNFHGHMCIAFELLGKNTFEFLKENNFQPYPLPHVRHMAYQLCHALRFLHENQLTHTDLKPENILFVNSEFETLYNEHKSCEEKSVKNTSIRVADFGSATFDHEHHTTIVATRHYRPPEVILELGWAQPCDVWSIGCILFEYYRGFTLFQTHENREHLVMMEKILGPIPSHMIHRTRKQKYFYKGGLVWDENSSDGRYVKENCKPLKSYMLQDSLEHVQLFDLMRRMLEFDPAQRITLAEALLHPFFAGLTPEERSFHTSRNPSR
Sequence of Casein kinase I isoform epsilon (P49674 whole entry, canonical isoform): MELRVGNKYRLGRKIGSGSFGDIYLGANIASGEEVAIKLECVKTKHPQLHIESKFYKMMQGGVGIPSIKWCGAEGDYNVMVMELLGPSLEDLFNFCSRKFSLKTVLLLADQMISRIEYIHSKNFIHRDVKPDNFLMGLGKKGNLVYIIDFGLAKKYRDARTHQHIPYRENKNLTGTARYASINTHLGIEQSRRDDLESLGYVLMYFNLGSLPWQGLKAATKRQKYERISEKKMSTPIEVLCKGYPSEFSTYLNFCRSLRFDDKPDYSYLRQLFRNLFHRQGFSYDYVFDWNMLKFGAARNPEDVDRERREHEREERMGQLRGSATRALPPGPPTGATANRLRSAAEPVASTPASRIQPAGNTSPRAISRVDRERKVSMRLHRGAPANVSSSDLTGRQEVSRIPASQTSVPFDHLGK
Sequence of Cyclin-dependent kinase 5/CDK5 activator 1 (Q00535 whole entry): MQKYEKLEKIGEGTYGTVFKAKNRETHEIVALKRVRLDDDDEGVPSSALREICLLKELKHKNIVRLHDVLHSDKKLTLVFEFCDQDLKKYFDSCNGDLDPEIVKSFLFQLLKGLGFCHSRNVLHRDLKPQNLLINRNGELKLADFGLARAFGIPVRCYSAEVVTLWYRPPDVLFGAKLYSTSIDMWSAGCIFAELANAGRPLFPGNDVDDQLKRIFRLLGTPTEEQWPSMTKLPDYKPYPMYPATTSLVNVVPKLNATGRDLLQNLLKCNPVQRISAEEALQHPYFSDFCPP
Sequence of Cyclin-dependent kinase 5/CDK5 activator 1 (Q15078 whole entry, further chain): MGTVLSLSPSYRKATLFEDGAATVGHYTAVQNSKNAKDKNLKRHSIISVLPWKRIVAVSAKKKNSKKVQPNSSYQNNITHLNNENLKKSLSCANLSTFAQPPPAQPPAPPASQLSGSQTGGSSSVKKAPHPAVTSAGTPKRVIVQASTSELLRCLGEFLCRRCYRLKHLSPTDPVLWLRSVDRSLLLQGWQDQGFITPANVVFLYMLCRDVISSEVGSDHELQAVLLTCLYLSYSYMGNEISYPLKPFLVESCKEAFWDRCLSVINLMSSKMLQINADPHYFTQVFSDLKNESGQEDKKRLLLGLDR
Sequence of Dual specificity protein kinase CLK2 (P49760 whole entry): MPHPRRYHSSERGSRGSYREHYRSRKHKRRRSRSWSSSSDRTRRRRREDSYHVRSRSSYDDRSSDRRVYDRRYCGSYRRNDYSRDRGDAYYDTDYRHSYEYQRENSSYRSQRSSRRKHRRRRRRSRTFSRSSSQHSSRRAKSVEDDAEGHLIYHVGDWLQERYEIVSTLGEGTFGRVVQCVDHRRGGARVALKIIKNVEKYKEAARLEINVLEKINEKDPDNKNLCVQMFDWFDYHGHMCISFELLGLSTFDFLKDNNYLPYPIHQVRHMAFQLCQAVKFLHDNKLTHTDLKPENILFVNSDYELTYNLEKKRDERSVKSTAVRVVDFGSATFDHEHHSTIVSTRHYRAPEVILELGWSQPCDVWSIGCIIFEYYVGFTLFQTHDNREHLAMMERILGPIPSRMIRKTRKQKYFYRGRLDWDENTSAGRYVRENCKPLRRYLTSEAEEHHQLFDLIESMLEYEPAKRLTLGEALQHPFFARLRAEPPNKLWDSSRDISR

| Structure (SMILES) | IC50 [1] | IC50 [2] | IC50 [3] | IC50 [4] | IC50 [5] | IC50 [6] | IC50 [7] | IC50 [8] | IC50 [9] |
| --- | --- | --- | --- | --- | --- | --- | --- | --- | --- |
| Cc1nc2ccc(/C=C3\N=C(NC45CC6CC(CC(C6)C4)C5)NC3=O)cc2s1 | > 10 µM | > 10 µM | 1340 nM | > 10000 nM | 20 nM | 666 nM | 324 nM | > 10000 nM | > 10 µM |
| CCCCCCc1ccc(NC2=N/C(=C\c3ccc4ncsc4c3)C(=O)N2)cc1 | > 10 µM | > 10 µM | 14200 nM | > 10000 nM | 3130 nM | > 10000 nM | > 10000 nM | > 10000 nM | > 10 µM |
| COC(=O)[C@H](CC(C)C)NC1=N/C(=C\c2ccc3ncsc3c2)C(=O)N1 |  | > 10 µM | 219 nM | 1700 nM | 17 nM | 903 nM | 1540 nM | 821 nM | 4.1 µM |
| Cc1ccc(CNC2=N/C(=C\c3ccc4ncsc4c3)C(=O)N2)o1 |  | > 10 µM | 127 nM | 722 nM | 24 nM | 1890 nM | 1800 nM | 1630 nM | 2.81 µM |
| COC(=O)[C@@H](CC(C)C)NC1=N/C(=C\c2ccc3ncsc3c2)C(=O)N1 |  | > 10 µM | 378 nM | 852 nM | 34 nM | 2370 nM | 5070 nM | 2260 nM | 1.34 µM |
| CN(C)CC(NC1=N/C(=C\c2ccc3ncsc3c2)C(=O)N1)c1ccccc1 (racemic) | > 10 µM | > 10 µM | 590 nM | 4120 nM | 104 nM | > 10000 nM | 1500 nM | 8730 nM | 6.77 µM |
| CC(=O)N1CCc2ccc(NC3=N/C(=C\c4ccc5ncsc5c4)C(=O)N3)cc21 | > 10 µM | > 10 µM | 869 nM | 2240 nM | 21 nM | 257 nM | 443 nM | 705 nM | 1.83 µM |
| O=C1NC(NCc2ccccc2)=N/C1=C\c1ccc2ncsc2c1 | > 10 µM | 6.11 µM | 86 nM | 280 nM | 13 nM | 1210 nM | 1640 nM | 1940 nM | 2.15 µM |
| CC(C)(C)C(=O)OC12CC3CC(CC(NC4=N/C(=C\c5ccc6ncsc6c5)C(=O)N4)(C3)C1)C2 | > 10 µM | > 10 µM | 1310 nM | > 10000 nM | 436 nM | > 10000 nM | > 10000 nM | > 10000 nM | > 10 µM |
| Cn1ncc2cccc(NC3=N/C(=C\c4ccc5ncsc5c4)C(=O)N3)c21 | > 10 µM | > 10 µM | 698 nM | 1550 nM | 73 nM | 5630 nM | 4050 nM | 4820 nM | 3.68 µM |
| CC(C)(C)NC(=O)OC12CC3CC(CC(NC4=N/C(=C\c5ccc6ncsc6c5)C(=O)N4)(C3)C1)C2 | 5 µM | > 10 µM | 35 nM | 709 nM | 11 nM | 147 nM | 299 nM | 127 nM | 1.8 µM |
| COCC(Cc1ccccc1)NC1=N/C(=C\c2ccc3ncsc3c2)C(=O)N1 (stereo unspecified) | > 10 µM | > 10 µM | 99 nM | 808 nM | 12 nM | 400 nM | 2380 nM | 374 nM | 4.25 µM |
| Cc1ccc(CNC2=N/C(=C\c3ccc4ncsc4c3)C(=O)N2)cc1C | > 10 µM | > 10 µM | 31 nM | 1240 nM | 14 nM | > 10000 nM | > 10000 nM |  | > 10 µM |

The remaining lines, values ahead:

| IC50 [1] | IC50 [2] | IC50 [3] | IC50 [4] | IC50 [5] | IC50 [6] | IC50 [7] | IC50 [8] | IC50 [9] | Structure (SMILES) |
| --- | --- | --- | --- | --- | --- | --- | --- | --- | --- |
| > 10 µM | > 10 µM | 923 nM | 4480 nM | 28 nM | 854 nM | 2020 nM | 3470 nM | > 10 µM | CC1(C)CNC(=O)C1NC1=N/C(=C\c2ccc3ncsc3c2)C(=O)N1 (racemic) |
| > 10 µM | > 10 µM | 17 nM | 738 nM | 11 nM | 176 nM | 223 nM | 221 nM | > 10 µM | CC1(C)C2CCC1(C)[C@H](NC1=N/C(=C\c3ccc4ncsc4c3)C(=O)N1)C2 (stereo partly specified) |
| > 10 µM | > 10 µM | 416 nM | 2810 nM | 27 nM | 3300 nM | 2980 nM | 6080 nM | > 10 µM | CN1CCCC(NC2=N/C(=C\c3ccc4ncsc4c3)C(=O)N2)C1=O (racemic) |
| > 10 µM | > 10 µM | 211 nM | 2740 nM | 147 nM | 9720 nM | 2450 nM | 2560 nM | > 10 µM | CC(C)[C@@H]1CC[C@@H](C)C[C@H]1NC1=N/C(=C\c2ccc3ncsc3c2)C(=O)N1 |
| > 10 µM | > 10 µM | 469 nM | 1160 nM | 22 nM | 664 nM | 346 nM | 3260 nM | 8.18 µM | O=C1CC[C@H](NC2=N/C(=C\c3ccc4ncsc4c3)C(=O)N2)CN1 |
| > 10 µM | > 10 µM | 5630 nM | > 10000 nM | 34 nM | 2280 nM | 3260 nM | > 10000 nM | > 10 µM | Cc1nc2ccc(/C=C3\N=C(NC4CCCCCC4)NC3=O)cc2s1 |
| > 10 µM | > 10 µM | 3660 nM | > 10000 nM | 1500 nM | > 10000 nM | 1590 nM | > 10000 nM | > 10 µM | CN1CCC(CNC2=N/C(=C\c3ccc4ncsc4c3)C(=O)N2)CC1 |
| > 10 µM | > 10 µM | 614 nM | 491 nM | 14 nM | 574 nM | 1430 nM | 2160 nM | 5.92 µM | O=C1NC(NC2COC2)=N/C1=C\c1ccc2ncsc2c1 |
| > 10 µM | > 10 µM | 1030 nM | 1150 nM | 33 nM | 1660 nM | 2560 nM | 3120 nM | > 10 µM | O=C1NC(NC2CCNC2=O)=N/C1=C\c1ccc2ncsc2c1 (racemic) |
| > 10 µM | > 10 µM | 771 nM | 1230 nM | 180 nM | 4760 nM | 887 nM | 7040 nM | > 10 µM | CN1CCCC(NC2=N/C(=C\c3ccc4ncsc4c3)C(=O)N2)C1 (racemic) |
|  | > 10 µM | 94 nM | 698 nM | 12 nM | 811 nM | 1130 nM | 1290 nM | > 10 µM | O=C1NC(NCC2CCOCC2)=N/C1=C\c1ccc2ncsc2c1 |
